The source of these data is patent US12486300B2, “Mithramycin oxime derivatives having increased selectivity and anti-cancer activity” (University of Kentucky Research Foundation, priority 2018, dated 2025).

Type in all cases: cell-based
Assay [1] relates to TC32 Ewing sarcoma cells, expressing EWS-FLI1. The assay is described as follows: Growth inhibition assay, TC32 cells. Particulars: for TC32 vs. PC3 / IC50: Table 1C; for TC32 vs. PC3: cellular selectivity; for IC50: read-out: IC50 TC-32; for EC50: Table 1D, read-out: TC-32 Mean EC50; for PC:TC32 (cellular selectivity): ratio of GI50 PC3 to TC32.
Assay [2] concerns PC3 Prostate Cancer Cells. Put plainly: Growth inhibition assay, PC3 cells. Conditions: for IC50: Table 1C; for EC50: Table 1D. As to the method: (§1) Growth inhibition assay to assess cytotoxicity in ETS vs non-ETS expressing cells. Cells were seeded in clear 96-well plates (VWR, Radnor, PA). Seeding densities were optimized for each cell line to support 5 days of linear growth. Following a 24 hours attachment period, cells in duplicate wells were treated with half-log increments of respective compounds (0 nM and 0.3 nM-10 μM). Working stocks were prepared from an initial 10 mM drug stock diluted in either 100% ethanol or dimethyl sulfoxide (DMSO). All wells contained a final concentration of 0.1% (v/v) respective organic solvent. Immediately following treatment, cell viability was measured for vehicle control (Day 0) wells. Cell viability was measured in the remaining wells after 72 hours of incubation with compound or vehicle control (Day 3).
(§2) Percent viability, relative to the initial cell seeding concentration, was calculated by ((TreatmentDay3−Vehicle ControlDay0)/(Vehicle ControlDay3−Vehicle ControlDay0))×100. Percent cell viability was plotted as a function of compound concentration (Log [M]) and the data were fit using a 3-parameter non-linear model with fixed Hill slope constant and 4-parameter non-linear model with variable Hill slope constant. The model with the best curve fit was used to estimate the GI50 in GraphPad Prism 7.0 software (GraphPad Software, La Jolla, CA). The 3-parameter equation used was Y=Bottom+(Top−Bottom)/(1+10[…]((X−Log[IC50]))). The 4-parameter equation used was Y=Bottom+(Top−Bottom)/(1+10[…]((Log[IC50]−X)*Hillslope)). Top and Bottom are plateaus in the units of the Y-axis (response). IC50 is the response (Y-axis) halfway between Top and Bottom plateaus.
All compounds were tested at least once in multi-well replicates and each experiment included one a control compound (i.e., MTM) to ensure the stable response of the cell lines. The selectivity index was estimated by determining the ratio of GI50 estimates between ETS fusion negative and ETS fusion positive cell lines.

Assay [3] relates to G-401 (ATTC Cat. No., CRL-1441); Rhabdoid tumor of the kidney. The assay is described as follows: Growth inhibition assay, G-401 cells. Conditions: for IC50: Table 1C; for EC50: Table 1D. On the procedure: as §1, with “3). For viability measurements, 0.1 mM resazurin (Sigma, St. Louis, MO) was added to wells and following 3 hours of incubation at 37° C., fluorescence readings ([…]) were recorded using a SpectraMax M5 plate reader (Molecular Devices, Sunnyvale, CA).” for “3).”
as §2
(§3) GI50 values were determined by pooling all available experiments and reported with 95% confidence interval, calculated from GraphPad Prism 7.0 software curve fit. All compounds were tested at least once in multi-well replicates and each experiment included one a control compound (i.e., MTM) to ensure the stable response of the cell lines. The selectivity index was estimated by determining the ratio of GI50 estimates between ETS fusion negative and ETS fusion positive cell lines.

Assay [4] deals with A-204 (ATTC Cat. No., HTB-82); Rhabdomyosarcoma (embryonal). The assay is described as follows: Growth inhibition assay, A-204 cells. Conditions: for IC50: Table 1C; for EC50: Table 1D. On the procedure: as §1, with “3). For viability measurements, 0.1 mM resazurin (Sigma, St. Louis, MO) was added to wells and following 3 hours of incubation at 37° C., fluorescence readings ([…]) were recorded using a SpectraMax M5 plate reader (Molecular Devices, Sunnyvale, CA).” for “3).”
as §2, §3

Assay [5] has as its system RH30 muscle rhabdomyosarcoma. The assay is described as follows: Growth inhibition assay, RH30 cells. Particulars: Table 1D. As to the method: as §1, with “3). For viability measurements, 0.1 mM resazurin (Sigma, St. Louis, MO) was added to wells and following 3 hours of incubation at 37° C., fluorescence readings ([…]) were recorded using a SpectraMax M5 plate reader (Molecular Devices, Sunnyvale, CA).” for “3).”
as §2, §3

The subject of assay [6] is U-2 OS bone osteosarcoma. The assay is described as follows: Growth inhibition assay, U-2 OS cells. Particulars: Table 1D. As to the method:
as §1, with “3). For viability measurements, 0.1 mM resazurin (Sigma, St. Louis, MO) was added to wells and following 3 hours of incubation at 37° C., fluorescence readings ([…]) were recorded using a SpectraMax M5 plate reader (Molecular Devices, Sunnyvale, CA).” for “3).”
as §2, §3

On to `COC(C(=NOCC(=O)NC(Cc1c[nH]c2ccccc12)C(=O)N1CCOCC1)C(O)C(C)O)C1Cc2cc3cc(OC4CC(OC5CC(O)C(O)C(C)O5)C(O)C(C)O4)c(C)c(O)c3c(O)c2C(=O)C1OC1CC(OC2CC(OC3CC(C)(O)C(O)C(C)O3)C(O)C(C)O2)C(O)C(C)O1` (stereo not shown) [MTM102], for which, in assay [1], the “TC32 vs. PC3” value is 17×. Further, the IC50 (in general, the concentration at which inhibition is half-maximal) in assay [1] worked out at 0.156 µM; in assay [2] it was 2.7 µM; in assay [3], 0.514 µM; in assay [4], 2.3 µM. Besides, the EC50 – broadly, the concentration at which the effect is half-maximal – in assay [1] was found to be 0.162 µM; in assay [2], 1.65 µM; in assay [3], 0.591 µM; in assay [4], 2.74 µM.

In the case of `CCN(CC)C(=O)C(Cc1c[nH]c2ccccc12)NC(=O)CON=C(C(O)C(C)O)C(OC)C1Cc2cc3cc(OC4CC(OC5CC(O)C(O)C(C)O5)C(O)C(C)O4)c(C)c(O)c3c(O)c2C(=O)C1OC1CC(OC2CC(OC3CC(C)(O)C(O)C(C)O3)C(O)C(C)O2)C(O)C(C)O1` (stereo not shown) [MTM103], the EC50 in assay [1] was found to be 0.0235 µM; in assay [2] it was 0.0913 µM; in assay [3], 0.0255 µM; in assay [4], 0.194 µM; in assay [5], 0.0294 µM.

On to `COC(C(=NOCC(=O)NC(Cc1c[nH]c2ccccc12)C(=O)N1CCC1)C(O)C(C)O)C1Cc2cc3cc(OC4CC(OC5CC(O)C(O)C(C)O5)C(O)C(C)O4)c(C)c(O)c3c(O)c2C(=O)C1OC1CC(OC2CC(OC3CC(C)(O)C(O)C(C)O3)C(O)C(C)O2)C(O)C(C)O1` (stereo not shown) [MTM104], for which the “TC32 vs. PC3” value in assay [1] is on record as 8×. The IC50 was 0.087 µM in assay [1], 0.73 µM in assay [2], 0.219 µM in assay [3] and 0.864 µM in assay [4]. The concentration for a half-maximal effect (EC50) in assay [1] was 0.0917 µM; in assay [2] it was 0.671 µM; in assay [3], 0.222 µM; in assay [4], 0.883 µM; in assay [5], 0.295 µM; in assay [6] it was greater than 10 µM.

On to `COC(C(=NOCC(=O)NC(Cc1c[nH]c2ccccc12)C(=O)N1CC(C)(C)C1)C(O)C(C)O)C1Cc2cc3cc(OC4CC(OC5CC(O)C(O)C(C)O5)C(O)C(C)O4)c(C)c(O)c3c(O)c2C(=O)C1OC1CC(OC2CC(OC3CC(C)(O)C(O)C(C)O3)C(O)C(C)O2)C(O)C(C)O1` (stereo not shown) [MTM105], for which the concentration giving a half-maximal response (EC50) in assay [1] is 0.0294 µM; in assay [2] it was 0.177 µM; in assay [3], 0.0234 µM; in assay [5], 0.0459 µM; in assay [6], greater than 10 µM.

As to `CNC(=O)[C@H](Cc1c[nH]c2ccccc12)NC(=O)CO/N=C(\[C@@H](O)[C@@H](C)O)[C@@H](OC)[C@@H]1Cc2cc3cc(O[C@H]4C[C@@H](O[C@H]5C[C@@H](O)[C@H](O)C(C)O5)[C@H](O)C(C)O4)c(C)c(O)c3c(O)c2C(=O)[C@H]1O[C@H]1C[C@@H](O[C@H]2C[C@@H](O[C@H]3C[C@](C)(O)[C@H](O)C(C)O3)[C@H](O)C(C)O2)[C@H](O)C(C)O1` (stereo partly shown) [MTM (40)], the concentration giving a half-maximal response (EC50) is 0.414 µM in assay [1]; 2.9 µM in assay [2]; 0.0402 µM in assay [3]; 0.256 µM in assay [4]; 1.2 µM in assay [5]; greater than 10 µM in assay [6]. In assay [1], the “PC:TC32 (cellular selectivity)” value is 11.8.

As for `CO[C@H](/C(=N/OCC(=O)N[C@@H](Cc1c[nH]c2ccccc12)c1nc(C)co1)[C@@H](O)[C@@H](C)O)[C@@H]1Cc2cc3cc(O[C@H]4C[C@@H](O[C@H]5C[C@@H](O)[C@H](O)C(C)O5)[C@H](O)C(C)O4)c(C)c(O)c3c(O)c2C(=O)[C@H]1O[C@H]1C[C@@H](O[C@H]2C[C@@H](O[C@H]3C[C@](C)(O)[C@H](O)C(C)O3)[C@H](O)C(C)O2)[C@H](O)C(C)O1` (stereo partly shown) [MTM (57)], the 50% effective concentration (EC50) is 0.074 µM in assay [1]; greater than 1.68 µM in assay [2]; 0.712 µM in assay [3]; 3.18 µM in assay [4]; greater than 10 µM in assay [6]. Moreover, the “PC:TC32 (cellular selectivity)” value in assay [1] was 3.3.
